Assay results taken from patent US11026940B2, “Compositions for the mobilization, homing, expansion and differentiation of stem cells and methods of using the same” (Ampio Pharmaceuticals, Inc., priority 2013, dated 2021).
Several values for one entry are separate records, joined by “and”; a condition that tells them apart may be missing. Equal values may be shown once.

Tests used:
Type in all cases: cell-based, human
[1] = test system: SOX9; test: Stem cell chondrogenesis, real time PCR gene expression: SOX9; conditions: Day 14; for regulation, SOX9 / Mean regulation, SOX9: fold regulation vs saline; for regulation, SOX9 / ΔCp, SOX9 / 2^-ΔΔCp vs saline, SOX9 / ΔΔCp vs saline, SOX9: single replicate well; for Mean regulation, SOX9 / Mean ΔCp, SOX9: triplicate wells; for ΔCp, SOX9: human bone marrow MSC, chondrogenic medium + TGF beta 3; for ΔCp, SOX9 / 2^-ΔΔCp vs saline, SOX9 / ΔΔCp vs saline, SOX9 / Mean ΔCp, SOX9: vs Actin
Method: The treatment protocol included expanding 5 HUXMA stem cells in 182 cm^2 flasks containing 40 […] to 80-90% confluence. Cells were trypsinized from the flasks and a 1.0×10^7 cell suspension of HUXMA stem cells was warmed in Cyagen Chondrogenic Differentiation medium. 20 μl of warmed cell suspension was spotted in the middle of each well of a 24-well tissue culture plate (200,000 cells per spot), and incubated at 37° C. and 5% CO2 for one hour. […] Medium exchanges were performed every 3-4 days by aspirating the medium from the wells and replacing with fresh chondrogenic medium, diluted stocks, and TGF beta 3, as described above. […] Medium from the wells was removed and saved for further protein analysis. Qiagen RNeasy plus lysis buffer (with 2mercaptoethanol) was added to each well and gently shaken for 10 minutes. The lysed cell suspensions from each well were transferred to Qiashredder columns and spun at 14,000 rpm for 2 minutes. RNA isolation proceeded by RNeasyTM plus manufacturer's protocol. RNA was eluted from the Qiagen columns using 25 μl RNase free water. cDNA synthesis and real time PCR was conducted as follows. First strand synthesis of cDNA from all samples was performed in 20 μl total volume using 10 μl isolated RNA. All cDNA reactions were then diluted with 30 μl nuclease free water. Real time PCR was then performed using 5 μl diluted cDNA, Roche Syber green master mix, and Qiagen RT^2 gPCRTM primer pairs in 20 μl total reaction volume.

[2] = test system: TIMP1; test: Stem cell chondrogenesis, real time PCR gene expression: TIMP1; conditions: Day 22; for Cp TIMP1 / 2-^ΔΔCp vs saline / Mean regulation / regulation: TIMP1; for Mean regulation / regulation: vs saline; for Mean ΔCp / ΔCp: TIMP1 vs Actin
Method: (§1) • Stem Cells: Bone marrow derived human mesenchymal stem cells: Passage 5 Bone marrow derived human mesenchymal stem cells (HUXMA-01001, Cyagen Biosciences, Sunnyvale Calif.) • Mesenchymal Stem Cell Chondrogenic Differentiation medium (GUXMX-90041, Cyagen Biosciences, Sunnyvale Calif.) • TheraPEAK MSCGM chemically defined Stem cell medium (190632 Lonza) • 1 mM Dexamethasone acetate and mifepristone in absolute ethanol (Sigma) • Saline or 0.9% Sodium chloride for injection ZR Flush (Excelsior Medical, Neptune N.J.) • Sterile filtered 0.6 mM sodium caprylate in saline (sigma) • Sterile filtered 3 mM NAT in saline (sigma); To prepare, heat at 60° C. for 30 minutes then sonicate for 5 minutes. • Sterile filtered 10 mM DADKP in saline • 0.2 μM syringe filters • Hepes buffered saline, Trypsin/EDTA, Trypsin neutralizing solution (Lonza reagent pack) • 182 cm2 tissue culture flasks • pipettes and sterile tips • Tissue culture hood, humidified CO2 incubator, water or bead bath • 24 well tissue culture plates • Qiagen RNeasy plus spin columns (Qiagen 74134) • Qiagen RT2 qPCR primer pairs for Collagen 2A1, MMP13, TIMP1, Aggrecan, GAPDH, and Actin B • Roche Sybr green I master mix and Invitrogen Superscript VILO master mix. • Roche 480 lightcycler
(§2) The following stock drug treatment solutions were prepared in saline for injection and warmed to 37° C. in bath: • 4 μM dexamethasone • 4 μM mifepristone • 3 mM NAT • 0.6 mM caprylate • 80 μM DADKP • Mix of 3 mM NAT, 0.6 mM caprylate, 80 μM DADKP (“Ampion” mix)
(§3) Cyagen Chondrogenic Differentiation medium was prepared by manufacturer protocols but excluding dexamethasone and TGF beta 3 supplements, and warmed to 37° C. in bath.
(§4) The treatment protocol included expanding 5 HUXMA stem cells in 182 cm^2 flasks containing 40 mls TheraPEAK™ MSCGM to 80-90% confluence. Cells were trypsinized from the flasks and a 1.0×10^7 cell suspension of HUXMA stem cells was warmed in Cyagen Chondrogenic Differentiation medium. 20 μl of warmed cell suspension was spotted in the middle of each well of a 24-well tissue culture plate (200,000 cells per spot), and incubated at 37° C. and 5% CO2 for one hour.
(§5) The plates were removed from the incubator and an additional 720 μl chondrogenic medium was added to each well. 250 μl saline, or drug solutions were added to the appropriate wells in triplicate (bringing the final drug dilution to one-quarter of the stock drug treatment solution concentrations). 10 μl of TGF beta 3 solution (supplied by Cyagen) was added to each well, and the plates were returned to the incubator.
(§6) RNA isolation and analysis was conducted for all plates as follows at days 7, 14, and 22 post treatment (with the described medium exchanges). […] Qiagen RNeasy plus lysis buffer (with 2mercaptoethanol) was added to each well and gently shaken for 10 minutes. The lysed cell suspensions from each well were transferred to Qiashredder columns and spun at 14,000 rpm for 2 minutes. RNA isolation proceeded by RNeasy™ plus manufacturer's protocol. RNA was eluted from the Qiagen columns using 25 μl RNase free water.
(§7) cDNA synthesis and real time PCR was conducted as follows. First strand synthesis of cDNA from all samples was performed in 20 μl total volume using 10 μl isolated RNA. All cDNA reactions were then diluted with 30 μl nuclease free water. Real time PCR was then performed using 5 μl diluted cDNA, Roche Syber green master mix, and Qiagen RT^2 gPCR™ primer pairs in 20 μl total reaction volume. Relative gene expression was determined by delta deta Ct method.

[3] = test system: Collagen 2A1; test: Stem cell chondrogenesis, real time PCR gene expression: Collagen 2A1; conditions: for Cp Coll / Mean regulation: Collagen 2A1; for Cp Coll / Mean regulation / Mean ΔCp / ΔCp: Day 22; for Mean regulation: vs saline; for Mean ΔCp / ΔCp: Collagen 2A1 vs GAPDH; for regulation, Collagen 2A1 / Mean regulation, Collagen 2A1: fold regulation vs saline; for regulation, Collagen 2A1 / ΔCp, Collagen 2A1 / 2^-ΔΔCp vs saline, Collagen 2A1 / ΔΔCp vs saline, Collagen 2A1: single replicate well; for Mean regulation, Collagen 2A1 / Mean ΔCp, Collagen 2A1: triplicate wells; for ΔCp, Collagen 2A1: human bone marrow MSC, chondrogenic medium + TGF beta 3; for ΔCp, Collagen 2A1 / 2^-ΔΔCp vs saline, Collagen 2A1 / ΔΔCp vs saline, Collagen 2A1 / Mean ΔCp, Collagen 2A1: vs Actin
Method: as §1, §2, §3, §4, §5, §6, §7

[4] = test system: MMP13; test: Stem cell chondrogenesis, real time PCR gene expression: MMP13; conditions: for regulation, MMP13 / Mean regulation, MMP13 / ΔCp, MMP13 / 2^-ΔΔCp vs saline, MMP13 / ΔΔCp vs saline, MMP13 / Mean ΔCp, MMP13: Day 7; for regulation, MMP13 / Mean regulation, MMP13: fold regulation vs saline; for regulation, MMP13 / ΔCp, MMP13 / 2^-ΔΔCp vs saline, MMP13 / ΔΔCp vs saline, MMP13: single replicate well; for Mean regulation, MMP13 / Mean ΔCp, MMP13: triplicate wells; for ΔCp, MMP13: human bone marrow MSC, chondrogenic medium + TGF beta 3; for ΔCp, MMP13 / 2^-ΔΔCp vs saline, MMP13 / ΔΔCp vs saline, MMP13 / Mean ΔCp, MMP13: vs Actin; for Cp, MMP13 / ΔΔCp vs saline / 2^-ΔΔCp vs saline / Mean regulation / Mean ΔCp / ΔCp: Day 22; for Cp, MMP13 / ΔΔCp vs saline / 2^-ΔΔCp vs saline / Mean regulation: MMP13; for Mean regulation: vs saline; for Mean ΔCp / ΔCp: MMP13 vs GAPDH
Method: as §1, §2, §3, §4, §5, §6, §7

[5] = test system: Aggrecan; test: Stem cell chondrogenesis, real time PCR gene expression: Aggrecan; conditions: Day 22; for Mean ΔCp / ΔCp: Aggrecan vs Actin; for Cp Agg / Mean regulation: Aggrecan; for Mean regulation: vs saline
Method: as §1, §2, §3, §4, §5, §6, §7

Compound: CC#C[C@]1(O)CC[C@H]2[C@@H]3CCC4=CC(=O)CCC4=C3[C@@H](c3ccc(N(C)C)cc3)C[C@@]21C [Mifepristone, mifepristone]
- regulation, SOX9 [1]: 1.24 and 1.17 and 1.16
- Mean regulation, SOX9 [1]: 1.19
- ΔCp, SOX9 [1]: 6.87 and 6.95 and 6.96
- 2^-ΔΔCp vs saline, SOX9 [1]: 1.2397 and 1.1728 and 1.1647
- ΔΔCp vs saline, SOX9 [1]: −0.31 and −0.23 and −0.22
- Mean ΔCp, SOX9 [1]: 6.927
- Cp TIMP1 ([2]; Table 12): 19.69 and 19.8 and 19.76
- 2-^ΔΔCp vs saline ([2]; Table 16): 0.6958 and 0.8448 and 0.6537
- Cp TIMP1 ([2]; Table 16): 19.76 and 19.69 and 19.8
- Mean regulation ([2]; Table 12): −1.38
- Mean ΔCp ([2]; Table 12): 4.227
- ΔCp ([2]; Table 12): 4.01 and 4.38 and 4.29
- Mean ΔCp ([2]; Table 16): 4.227
- ΔCp ([2]; Table 16): 4.29 and 4.01 and 4.38
- Cp Coll ([3]; Table 12): 25.99 and 27.6 and 26.84
- Cp Coll ([3]; Table 16): 25.99 and 27.6 and 26.84
- Mean regulation ([3]; Table 12): 16.82
- Mean regulation ([3]; Table 16): 16.82
- Mean ΔCp ([3]; Table 12): 9.22
- ΔCp ([3]; Table 12): 8.52 and 10.14 and 9
- Mean ΔCp ([3]; Table 16): 9.22
- ΔCp ([3]; Table 16): 8.52 and 10.14 and 9
- regulation, Collagen 2A1 ([3]; Day 7): −1.12 and −3.11 and −1.23
- Mean regulation, Collagen 2A1 ([3]; Day 7): −1.82
- ΔCp, Collagen 2A1 ([3]; Day 7): 6.9 and 8.37 and 7.03
- 2^-ΔΔCp vs saline, Collagen 2A1 ([3]; Day 7): 0.8909 and 0.3216 and 0.8141
- ΔΔCp vs saline, Collagen 2A1 ([3]; Day 7): 0.167 and 1.637 and 0.297
- Mean ΔCp, Collagen 2A1 ([3]; Day 7): 7.433
- regulation, Collagen 2A1 ([3]; Day 14): 1.21 and 1.07 and 1.57
- Mean regulation, Collagen 2A1 ([3]; Day 14): 1.28
- ΔCp, Collagen 2A1 ([3]; Day 14): 10.78 and 10.96 and 10.41
- 2^-ΔΔCp vs saline, Collagen 2A1 ([3]; Day 14): 1.2114 and 1.0693 and 1.5655
- ΔΔCp vs saline, Collagen 2A1 ([3]; Day 14): −0.28 and −0.1 and −0.65
- Mean ΔCp, Collagen 2A1 ([3]; Day 14): 10.72
- regulation, MMP13 [4]: −1.49 and −1.34
- Mean regulation, MMP13 [4]: −2.47
- ΔCp, MMP13 [4]: 5.21 and 6.83 and 5.06
- 2^-ΔΔCp vs saline, MMP13 [4]: 0.6721 and 0.2186 and 0.7457
- ΔΔCp vs saline, MMP13 [4]: 0.573 and 2.193 and 0.423
- Mean ΔCp, MMP13 [4]: 5.7
- Cp, MMP13 ([4]; Table 12): 20.98 and 21.32 and 21.37
- ΔΔCp vs saline ([4]; Table 12): 0.517 and 0.867 and 0.537
- 2^-ΔΔCp vs saline ([4]; Table 16): 0.699 and 0.5484 and 0.6894
- Cp, MMP13 ([4]; Table 16): 20.98 and 21.32 and 21.37
- ΔΔCp vs saline ([4]; Table 16): 0.517 and 0.867 and 0.537
- Mean regulation ([4]; Table 12): −1.57
- Mean regulation ([4]; Table 16): −1.57
- Mean ΔCp ([4]; Table 12): 3.633
- ΔCp ([4]; Table 12): 3.51 and 3.86 and 3.53
- Mean ΔCp ([4]; Table 16): 3.633
- ΔCp ([4]; Table 16): 3.51 and 3.86 and 3.53
- Mean ΔCp ([5]; Table 12): 9.247
- ΔCp ([5]; Table 12): 10.29 and 8.98 and 8.47
- Mean ΔCp ([5]; Table 16): 9.247
- ΔCp ([5]; Table 16): 10.29 and 8.98 and 8.47
- Cp Agg ([5]; Table 12): 25.97 and 24.4 and 23.94
- Cp Agg ([5]; Table 16): 25.97 and 24.4 and 23.94
- Mean regulation ([5]; Table 12): 1.55
- Mean regulation ([5]; Table 16): 1.55

Compound: CC(=O)N[C@@H](Cc1c[nH]c2ccccc12)C(=O)O [NAT, N-acetyl-tryptophan]
- regulation, SOX9 [1]: −2.30 and 2.11 and 2.04
- Mean regulation, SOX9 [1]: 0.62
- ΔCp, SOX9 [1]: 8.38 and 6.1 and 6.15
- 2^-ΔΔCp vs saline, SOX9 [1]: 0.4353 and 2.114 and 2.042
- ΔΔCp vs saline, SOX9 [1]: 1.2 and −1.08 and −1.03
- Mean ΔCp, SOX9 [1]: 6.877
- Cp TIMP1 ([2]; Table 12): 20.59 and 21.28 and 20.57
- 2-^ΔΔCp vs saline ([2]; Table 16): 1.2894 and 1.1225 and 1.1147
- Cp TIMP1 ([2]; Table 16): 20.59 and 21.28 and 20.57
- Mean regulation ([2]; Table 12): 1.18
- regulation ([2]; Table 12): 1.29 and 1.12 and 1.11
- regulation ([2]; Table 16): 1.29 and 1.12 and 1.11
- Mean ΔCp ([2]; Table 12): 3.537
- ΔCp ([2]; Table 12): 3.4 and 3.6 and 3.61
- Mean ΔCp ([2]; Table 16): 3.537
- ΔCp ([2]; Table 16): 3.4 and 3.6 and 3.61
- Cp Coll ([3]; Table 12): 24.2 and 23.63 and 24.67
- Cp Coll ([3]; Table 16): 24.2 and 23.63 and 24.67
- Mean regulation ([3]; Table 12): 262.94
- Mean regulation ([3]; Table 16): 262.94
- Mean ΔCp ([3]; Table 12): 5.207
- ΔCp ([3]; Table 12): 4.75 and 4.87 and 6
- Mean ΔCp ([3]; Table 16): 5.207
- ΔCp ([3]; Table 16): 4.75 and 4.87 and 6
- regulation, Collagen 2A1 ([3]; Day 7): −1.40 and 1.01 and −1.43
- Mean regulation, Collagen 2A1 ([3]; Day 7): −0.61
- ΔCp, Collagen 2A1 ([3]; Day 7): 7.22 and 6.72 and 7.25
- 2^-ΔΔCp vs saline, Collagen 2A1 ([3]; Day 7): 0.7137 and 1.0093 and 0.699
- ΔΔCp vs saline, Collagen 2A1 ([3]; Day 7): 0.487 and −0.01 and 0.517
- Mean ΔCp, Collagen 2A1 ([3]; Day 7): 7.063
- regulation, Collagen 2A1 ([3]; Day 14): −3.42 and 7.09 and 7.76
- Mean regulation, Collagen 2A1 ([3]; Day 14): 3.81
- ΔCp, Collagen 2A1 ([3]; Day 14): 12.83 and 8.23 and 8.1
- 2^-ΔΔCp vs saline, Collagen 2A1 ([3]; Day 14): 0.2925 and 7.0943 and 7.7633
- ΔΔCp vs saline, Collagen 2A1 ([3]; Day 14): 1.773 and −2.83 and −2.96
- Mean ΔCp, Collagen 2A1 ([3]; Day 14): 9.72
- regulation, MMP13 [4]: −1.43 and −1.81 and −2.45
- Mean regulation, MMP13 [4]: −1.89
- ΔCp, MMP13 [4]: 5.15 and 5.49 and 5.93
- 2^-ΔΔCp vs saline, MMP13 [4]: 0.7006 and 0.5535 and 0.408
- ΔΔCp vs saline, MMP13 [4]: 0.513 and 0.853 and 1.293
- Mean ΔCp, MMP13 [4]: 5.523
- Cp, MMP13 ([4]; Table 12): 22.68 and 21.71 and 21.65
- 2^-ΔΔCp vs saline ([4]; Table 16): 0.8487 and 1.0305 and 1.0093
- Cp, MMP13 ([4]; Table 16): 22.68 and 21.71 and 21.65
- Mean regulation ([4]; Table 12): 0.29
- Mean regulation ([4]; Table 16): 0.29
- Mean ΔCp ([4]; Table 12): 3.053
- ΔCp ([4]; Table 12): 3.23 and 2.95 and 2.98
- Mean ΔCp ([4]; Table 16): 3.053
- ΔCp ([4]; Table 16): 3.23 and 2.95 and 2.98
- Mean ΔCp ([5]; Table 12): 7.1
- ΔCp ([5]; Table 12): 8.24 and 5.62 and 7.44
- Mean ΔCp ([5]; Table 16): 7.1
- ΔCp ([5]; Table 16): 8.24 and 5.62 and 7.44
- Cp Agg ([5]; Table 12): 25.43 and 23.3 and 24.4
- Cp Agg ([5]; Table 16): 25.43 and 23.3 and 24.4
- Mean regulation ([5]; Table 12): 11.66
- Mean regulation ([5]; Table 16): 11.66
